Experimental data taken from patent US20060029576A1, “Biological control of pythium disease in crops” (HER MAJESTY THE QUEEN IN RIGHT OF CANADA, THE MINISTER OF …, priority 2004, published 2006).

Columns and labels:
Type in all cases: in vivo
[1] = system: Pythium spp. (predominantly Pythium sp. ‘group G’); assay: Seed treatment of lentil cv. Laird, damping-off field experiment 2004
Protocol: (§1) The strains of Rhizobium leguminosarum bv. viceae used for the study were 99A1, R12, R20, and R21. Strain 99A1 was originated from the commercial pea inoculant produced by Agrium, Inc. Calgary, Alberta. Bacterial cultures were grown on tryptone-yeast agar (TYA) (Beringer, 1974) in Petri dishes for 48 h at room temperature (20±2° C.). The resulting colonies were suspended in 5 ml per dish of 1% methyl cellulose (Sigma-Aldrich, Milwaukee, Wis.) in sterile distilled water, and scraped gently with a spatula to obtain bacterial slurries. Seeds of field pea cv. Trapper and lentil cv. Laird were soaked for 20 minutes in the slurries, spread on a metallic mesh sheet with paper towel underneath to absorb the excess slurry, and air-dried overnight under a fume hood. Enumeration of bacteria coated onto seeds was done by placing 5 seeds in a test tube with 5 ml of sterile distilled water, vortexing for 30 sec, and plating serial dilutions on TYA, 0.1 ml per 9-cm dish. After incubation at room temperature for 3 days, bacterial colonies developed in each dish were counted. There were two replicates for each treatment.
(§2) Field experiments were conducted at the Agriculture and Agri-Food Canada Research Centre near Lethbridge, Alberta, Canada, in a field naturally infested with Pythium spp. (predominantly Pythium sp. ‘group G’). For the pea experiment, seeds were planted using a plot seeder on 28 May 2004, in 4-row plots with a row length of 5 m, a row spacing of 22.5 cm, and a plant spacing of 5 cm (i.e. 20 seeds/m). Untreated seeds and fungicide-treated seeds (Thiram™ at the rate of 30 g/25 kg seed) (Gustafson; Calgary, Alberta, Canada) were used as controls. Treatments were arranged in a randomized block design with 6 replicates. For the lentil experiment, seeds were planted on the same date and using the same parameters as for field pea.
(§3) Seedling emergence for each plot was determined. The number of healthy seedlings and the number of wilted seedlings were counted in the middle 3 m of each row, and the percent loss due to pre-emergent and post-emergent damping-off were calculated, as well as the final stand establishment. The causal agent of seedling death was determined by collecting 10 non-emerged seedlings and all of the wilted seedlings from each plot, washing in running water, surface sterilizing in 70% ethanol for 90 sec, incubating on potato dextrose agar (PDA) in Petri dishes at room temperature for 7 days, and examining the organisms derived from each sample. Results of reisolation of diseased seedlings were used to calculate the incidence of damping-off due to Pythium spp. for each plot.
(§4) Seedling height for each plot was determined (6-node stage for peas; 5-node stage for lentils). For each row, ten seedlings were randomly selected and the distance from the first node to the terminal branch of each seedling was measured.
(§5) Differences between treatments for incidence of damping-off, seedling emergence and seedling height data were analyzed for statistical significance using analysis of variance (ANOVA) and means of treatments for each set of data were separated using Duncan's multiple range test at the P=0.05 level. All statistical analyses were done using SAS Statistical Analysis Software, Version 8.2 (SAS Institute Inc., Cary, N.C. 2001).

Pythium spp. [2] = assay: Seed treatment of field pea, field naturally infested with Pythium spp. (2001 field experiments); conditions: 4 weeks after planting
Protocol: (§6) The selected strains of R. leguminosarum bv. viceae (R12, R20, and R21) effective against Pythium damping-off of sugar beet in indoor experiments were tested for control of damping-off of sugar beet and field pea in fields naturally infested with Pythium spp. at the Lethbridge Research Centre, Alberta. […] (Bardin et al. 2003). The seeds were coated with the bacterial slurry as described previously using 2.4 and 9.5 mL bacterial slurry/100 seeds of sugar beet and field pea, respectively. The seeds were dried overnight at room temperature on a metallic mesh, which was placed on a paper towel to absorb the excess slurry. The number of bacteria coated onto the seeds was similar for the four bacterial strains, ranging from 1.4×10^6±0.2×10^6 to 2.3×10^7±0.2×10^7 cfu/seed for sugar beets and 3.0×10^7±0.3×10^7 to 1.2×10^8±0.4×10^8 cfu/seed for field peas. The coated seeds were then stored at 4° C. until planting. Bacterial counts on the seeds were determined by vortexing five coated seeds in 5 mL of distilled sterile water for 30 seconds, and by plating serial dilutions on TY agar medium in Petri dishes for Rhizobium strains and on PDA in Petri dishes for P. fluorescens. […] Seedling emergence was recorded 4 weeks after planting and was compared with the uninoculated and fungicide controls. […]

Pythium spp. [3] = assay: Seed treatment of sugar beet, field naturally infested with Pythium spp. (2001 field experiments); conditions: 4 weeks after planting
Protocol: as §6

[4] = system: Pythium spp. (predominantly Pythium sp. ‘group G’); assay: Seed treatment of field pea cv. Trapper, damping-off field experiment 2004; conditions: for Plant Height (cm): 6-node stage (4 weeks after planting)
Protocol: as §1, §2, §3, §4, §5

With `CN(C)C(=S)SSC(=S)N(C)C` [Thiram] the “Plant Height (cm)” value ([1]; 5-node stage (4 weeks after planting), control 11.2) was 11.4 a cm, the “Damping-off (%) Post-emergent” value ([1]; control 2.7) was 2.6% and the “Damping-off (%) by Pythium” value ([1]; control 35.3, listed as Fungicide (Thiram)) was 22.8 d %. For the same compound, the “Damping-off (%) by Pythium” value ([1]; control 35.3, listed as fungicide) was 22.8%, the “Damping-off (%) Pre-emergent” value ([1]; control 46.3) was 34.2% and the “Damping-off (%) Pre-emergent” value ([1]; control 46.3, listed as Fungicide (Thiram)) was 34.2 c %. The “Final Stand (%)” value ([1]; control 51.0) was 63.2 d %, the “Emergence (%) Pea (Pisum sativum) August 2001” value (Pythium spp. [2]; untreated control 12.8) was 48.3a % and the “Emergence (%) Pea (Pisum sativum) May 2001” value (Pythium spp. [2]; untreated control 41.4) was 71.4a %. For the same compound, the “Emergence (%) Sugar beet (Beta vulgaris) August 2001” value (Pythium spp. [3]; untreated control 6.5) was 27.0a %, the “Emergence (%) Sugar beet (Beta vulgaris) May 2001” value (Pythium spp. [3]; untreated control 10.0) was 28.6a % and the “Plant Height (cm)” value ([4]; control 11.1) was 14.6 cm. The “Plant Height (cm)” value ([4]; control 11.1, listed as Fungicide (Thiram)) was 14.6 c cm, the “Damping-off (%) Post-emergent” value ([4]; control 0.2) was 0.6% and the “Final Stand (%)” value ([4]; control 37.8) was 79.1 c %. For the same compound, the “Damping-off (%) by Pythium” value ([4]; control 55.4, listed as Fungicide (Thiram)) was 16.7 c %, the “Damping-off (%) by Pythium” value ([4]; control 55.4, listed as fungicide) was 16.7% and the “Damping-off (%) Pre-emergent” value ([4]; control 62.0) was 20.3%. For the same compound, the “Damping-off (%) Pre-emergent” value ([4]; control 62.0, listed as Fungicide (Thiram)) was 20.3 c %.
